According to US20100239556A1, “PROMOTING ECM PRODUCTION BY FIBROBLAST CELLS AND/OR PROMOTING MIGRATION OF FIBROBLAST CELLS IN A BIOLOGICAL SYSTEM” (TGR BioScience Pty Ltd., priority 2006, published 2010):

Key:
HFF cells [1] = test: ECM production within INTEGRA scaffold (collagen I immunohistochemistry); assay type: cell-based, human; details: SBP 25 μg/ml pre-, pre+post- or post-treatment
Text: INTEGRA® was cut into lcm x lcm pieces using a sterile scalpel, the pieces transferred to a petri dish using sterile forceps and washed four times each with PBS followed by serum-free DMEM, to remove the alcohol storage medium and to equilibrate the porous scaffold for exposure to cells. After the last wash, the INTEGRA® pieces were transferred to the wells of a 12 well tissue culture plate (collagen layer facing up) immersed in media containing proteins having peroxidase activity. This “pre-treatment” of the INTEGRA® with proteins having peroxidase activity was performed for up to 16 hours at 37° C. in a CO2 incubator. After the “pre-incubation” period, the media was replaced with fresh DMEM supplemented with 10% FBS (ie normal growth media as the control) containing 5×10^5 human fibroblast cells plus or minus proteins having peroxidase activity. After allowing 24 hours for the fibroblast cells to attach to the collagen matrix of the INTEGRA® scaffold, the INTEGRA® pieces were transferred to fresh 12 well plates to ensure any cells not attached to the matrix surface were removed. Fresh media containing proteins with peroxidase activity were added to the wells and the INTEGRA® pieces incubated for up to 14 days (“post-treatment” period) with the media changed every 7 days as necessary. At the end of the experiment the INTEGRA® pieces were harvested and fixed in 10% buffered formaldehyde before they were processed, embedded in paraffin wax, cut in cross-section and placed onto microscope slides for histological and immunohistochemical analysis.
To confirm proteins having peroxidase activity promote the generation of a three-dimensional human tissue by stimulating the production of collagen and other ECM components to fill the interstices of a three-dimensional framework or scaffold, INTEGRA® pieces collected from the experiments described in Example 3 were analysed for the production of Collagen I (as a representative ECM protein) using immunohistochemistry. […]

HFF cells [2] = test: Soluble collagen I secreted by fibroblast-populated INTEGRA (ELISA); assay type: cell-based, human; details: SBP 12.5 μg/ml for 24 hours, ELISA after 72 hours
Experimental: Additional experiments were performed to determine if fibroblast cells populating a three-dimensional framework or scaffold could be stimulated to secrete soluble collagen I into the media bathing the three-dimensional framework or scaffold. For these experiments, HFF cells were seeded onto the INTEGRA® and allowed to populate the scaffold for two weeks under normal culture conditions (10% FCS supplementation). The populated scaffold was then stimulated with a protein having peroxidase activity by immersing it in basal media (DMEM) containing SBP (12.5 μg/ml) for 24 hours. The INTEGRA® was then placed into fresh DMEM and the collagen-I content of the media measured by ELISA after 72 hours.

[3] = Elution of peroxidase activity from INTEGRA (Sigmafast OPD detection)
Experimental: (§1) These experiments were performed by pre-incubating 1 cm×1 cm pieces of INTEGRA® with SBP (25 μg/ml) as described in Example 3 for either 30 minutes or 16 hours, control pieces were pre-incubated in DMEM only. After this time, the pieces of INTEGRA® were washed in fresh media to remove excess SBP solution, and placed into the wells of a 12-well culture plate pre-seeded with HFF cells (2×10^5cells/well) that were grown to confluency over three days. The media from these wells was collected after 24 and 48 hours with peroxidase activity measured (to determine the rate of elution of the proteins with peroxidase activity from the Integra) and the collagen content measured by ELISA (to ensure the eluted proteins with peroxidase activity retained the capacity to stimulate collagen production by the HFF cells). The peroxidase activity was assessed using the Sigmafast™ O-phenylenediamine dihydrochloride (OPD) detection method as per the manufacturers instructions. Briefly, 5 μl of sample was combined with 100 μl of reagent and relative peroxidase activity determined after 5-10 minutes incubation by measuring absorbance at 450 nm using a Wallac Victor Multilabel HTS counter.

HFF cells [4] = test: Collagen I in PuraMatrix Peptide Hydrogel (western blot); assay type: cell-based, human; details: one week
Experimental: Additional experiments were also performed to ensure the effects observed using the INTEGRA® as a three-dimensional framework or scaffold were not limited to a bovine collagen/glycosaminoglycan structure and could be achieved in synthetically derived matrices. For these experiments a PuraMatrix™ Peptide Hydrogel was used. The PuraMatrix Peptide Hydrogel is a synthetic matrix that self assembles into a three-dimensional hydrogel (1% w/v amino acids: 99% water) under physiological conditions with a nanometer scale fibrous structure and an average pore size of 50-200 nm. For these experiments, HFF cells were suspended in a 20% sucrose solution, with or without proteins having peroxidase activity, and added 1:1 to neat (1%) PuraMatrix hydrogel and carefully pipette mixed, so as not to create bubbles. Each cell/gel mix was plated in 24 well plates and allowed to partially set at room temperature for 5 min. Next, DMEM supplemented with either 10, 5 or 2% FCS was very slowly overlayed in a dropwise fashion down the edge of the well so as not to disrupt the gel. Plates were placed in a 37° C. incubator for the mix to completely solidify, and the media was changed twice over 1 hr to equilibrate the gel to pH 7.4. The encapsulated hydrogel was incubated for one week, the bathing culture media removed and RIPA buffer added to the gel for total protein extraction. […]

HFF cells [5] = test: Collagen I production stimulated by SBP eluted from INTEGRA (ELISA); assay type: cell-based, human; details: versus control INTEGRA pieces
Experimental: as §1

soy bean peroxidase [SBP]
production and deposition of cell-associated ECM in the scaffold (HFF cells [1]): as effective at promoting the production and depositon of cell-associated ECM throughout the full thickness of the scaffold | increase in collagen I secreted into the media bathing the scaffold (HFF cells [2]): 2-3 fold | peroxidase activity eluted, pre-incubated 16 hours compared to 30 minutes [3]: approximately one third more | peroxidase activity in the medium collected after 24 and 48 hours ([3]; 24 versus 48 hours elution): identical | collagen I produced in the Hydrogel matrix (HFF cells [4]; SBP 25 μg/ml in 10% FCS versus 10% FCS alone): produced more collagen I | collagen I produced in the Hydrogel matrix (HFF cells [4]; SBP in 2 or 5% FCS): relatively more collagen I was produced | ECM production (collagen I ELISA) by HFF cells exposed to eluted protein (HFF cells [5]): able to stimulate ECM production
